The values that follow come from PMC3610872, “Full and Partial Agonists of Thromboxane Prostanoid Receptor Unveil Fine Tuning of Receptor Superactive Conformation and G Protein Activation” (PLoS ONE, 2013).

Assay [1] deals with T1, WT human TP receptor (Homo sapiens, UniProt P21731).
T1 construct: expressed in transfected cells; host or cells: HEK293
T1 sequence (P21731 1-343): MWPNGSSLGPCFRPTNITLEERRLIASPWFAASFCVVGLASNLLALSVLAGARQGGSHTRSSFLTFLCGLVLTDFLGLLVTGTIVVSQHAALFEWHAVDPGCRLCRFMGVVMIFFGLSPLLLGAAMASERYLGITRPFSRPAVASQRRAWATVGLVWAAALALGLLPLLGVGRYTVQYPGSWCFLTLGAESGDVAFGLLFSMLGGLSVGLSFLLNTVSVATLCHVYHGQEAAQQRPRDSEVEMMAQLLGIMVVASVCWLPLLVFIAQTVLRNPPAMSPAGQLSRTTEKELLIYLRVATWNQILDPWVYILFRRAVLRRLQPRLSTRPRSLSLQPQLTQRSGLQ
As to the kind of experiment: [3H]SQ29,548 radioligand binding (mixed-type and heterologous competition), WT receptor. To be noted: HEK293 cells, competition vs 1 nM [3H]SQ29,548, 25°C 30 min, value ±%CV. Here is the method:
(§1) Receptor expression and functional activity were monitored 48 hours after transfection. […] Heterologous competition studies involved concentrations of the indicated unlabeled ligands extending from 0.1 nM to 30 µM. After 30 min incubation at 25 °C, the reaction was stopped by aspiration of the medium, cells were washed with ice-cold PBS containing 0.2% (w/v) BSA and lysed in 0.5 N NaOH. Radioactivity was measured by liquid scintillation counting. Binding data were analyzed as described in Data and Statistical Analysis. Quantification of the total labeled inositol phosphates (IP) accumulation was performed using a conventional gravity flow column chromatography, as described previously, [19]. Briefly, the day before the assay, cells were labeled with 0,5 µCi of [myo-2-^3H]inositol (17 Ci/mmol) for 18–20 hours in serum-free, inositol-free DMEM containing 20 mM HEPES buffer, pH 7.4, and 0.5% (w/v) Albumax I. The day of the assay, media was replaced with serum-free, inositol-free DMEM containing 25 mM LiCl and cells stimulated for 30 min with the indicated agonists. After removal of the medium, cells were lysed with 10 mM formic acid and lysates were applied onto an anion exchange AG 1X-8 column, formate form, 200–400 mesh. The total IP fraction was then eluted with 2 M ammonium formate/formic acid buffer at pH 5 and radioactivity determined by liquid scintillation counting. Rescue experiments were performed essentially as above, except for a 18 hours incubation step with 1 µΜof […] followed by its removal by washing three times with ice-cold PBS containing 1 mM MgCl2 and 0.1 mM CaCl2 before starting the experiment.
(§2) All average results are presented as mean±S.E. When indicated, ANOVA followed by post-hoc test for multiple comparisons was performed. Data from radioligand binding were evaluated by a nonlinear, least-squares curve-fitting procedure using GraphPad Prism version 4, implemented with the n-ligand m-binding site model, as described in the LIGAND computer program. Concentration-response curves were evaluated using Prism 4, which use the four parameters logistic model as described in the ALLFIT program. Parameter errors are all expressed in percentage coefficient of variation (%CV) and calculated by simultaneous analysis of at least two different independent experiments performed in duplicate or triplicate. Parameter comparison has been performed on the base of the F test for extra sum of square principle. All curves shown are computer generated.
(§3) Thus, transfection conditions were adjusted to secure equivalent levels of receptor expression for WT and mutants as previously described, [17], [19]. […] All the experiments were conducted within this range of receptor expression, if not specified differently.

The subject of assay [2] is E240V mutant TP receptor. Also noted: method as in PMID 20383734. The settings on record: E240V vs WT; cited from earlier work.
In assay [3] the target is T2, double mutant E129V/E240V of human TP receptor (Homo sapiens, UniProt P21731, E129V/E240V).
T2 construct: expressed in transfected cells; host or cells: HEK293
T2 sequence (P21731 1-343 E129V/E240V): T1 sequence (P21731 1-343) with E129V, E240V
As to the kind of experiment: Total inositol phosphate (IP) accumulation, E129V/E240V double mutant, rescue with SQ29,548. The format is cell-based. The settings on record: HEK293 cells, E129V/E240V double mutant after rescue with 1 µM SQ29,548 for 18 h; ±33%CV. Here is the method:
Receptor expression and functional activity were monitored 48 hours after transfection. […] Heterologous competition studies involved concentrations of the indicated unlabeled ligands extending from 0.1 nM to 30 µM. After 30 min incubation at 25 °C, the reaction was stopped by aspiration of the medium, cells were washed with ice-cold PBS containing 0.2% (w/v) BSA and lysed in 0.5 N NaOH. Radioactivity was measured by liquid scintillation counting. Binding data were analyzed as described in Data and Statistical Analysis. Quantification of the total labeled inositol phosphates (IP) accumulation was performed using a conventional gravity flow column chromatography, as described previously, [19]. […] The total IP fraction was then eluted with 2 M ammonium formate/formic acid buffer at pH 5 and radioactivity determined by liquid scintillation counting. […]
All average results are presented as mean±S.E. When indicated, ANOVA followed by post-hoc test for multiple comparisons was performed. Data from radioligand binding were evaluated by a nonlinear, least-squares curve-fitting procedure using GraphPad Prism version 4, implemented with the n-ligand m-binding site model, as described in the LIGAND computer program. Concentration-response curves were evaluated using Prism 4, which use the four parameters logistic model as described in the ALLFIT program. […]

The target in assay [4] is T3, E129V mutant human TP receptor (Homo sapiens, UniProt P21731, E129V).
T3 construct: expressed in transfected cells; host or cells: HEK293
T3 sequence (P21731 1-343 E129V): T1 sequence (P21731 1-343) with E129V
As to the kind of experiment: Total inositol phosphate (IP) accumulation, E129V mutant. The format is cell-based. To be noted: HEK293 cells. Here is the method: as §1, §2

Assay [5] has as its target T3, E129V mutant human TP receptor. As to the kind of experiment: BRET2 measurement of Gq protein activation, E129V mutant. The format is cell-based. To be noted: HEK293 cells. Here is the method: as §2
The target is the same in assay [6]. As to the kind of experiment: [3H]SQ29,548 radioligand binding (mixed-type and heterologous competition), E129V mutant. The settings on record: HEK293 cells. Here is the method: as §1, §2, §3
The mark [7] stands for this setting: E129V, 30 min stimulation, value ±%CV.

Each structure is given as a SMILES string. Substitutions are numbered along the chain they refer to. “And” between values parts separate entries of the source, which are not always exact repeats. Identical values can stand only once.

Usually Ki stands for a dissociation constant, usually derived from enzyme kinetics or from competition with a known ligand. Broadly, the EC50 is the concentration giving half of the maximal effect.

With `CCCCC[C@H](O)/C=C/[C@@H]1[C@@H](C/C=C\CCCC(=O)O)[C@H]2CO[C@@H]1C2` (relative stereo) [U46619, [1R-[1α,4α,5β(Z),6α(1E,3S*)]]-7-[6-(3-hydroxy-1-octenyl)-2-oxabicyclo[2.2.1]hept-5-yl]-5-heptenoic acid], the Ki is 170 ± 13 nM in assay [1] and 16.3 ± 18 nM in assay [6] (E129V, competition vs 1 nM [3H]SQ29,548, 25°C 30 min, value ±%CV). Besides, the “Fold lower EC50 than WT, total IP formation” value in assay [2] is on record as 10 fold. In addition, the EC50 in assay [3] was 1.66 nM; in assay [4] (setting [7]), 4.47 nM; in assay [5] (E129V, Gαq-Rluc8/GFP10-Gγ2/Gβ1, 2 min ligand, value ±%CV), 4.53 nM. The “Emax, total IP” value in assay [4] (setting [7]) turned out to be 18115±5 dpm/wel. Further, the “Activity ratio (EC50 WT over EC50 E129V), total IP” value in assay [4] (WT vs E129V) amounted to 22.1. Further, the “Activity ratio (EC50 WT over EC50 E129V), BRET” value in assay [5] (WT vs E129V) was determined as 76. The “Affinity ratio (Ki WT over Ki E129V)” value in assay [6] (WT vs E129V) is 10 and 10.4.
